This note sets out measurements from patent US6984649B1, “Pyridine derivatives” (Bayer Aktiengesellschaft, priority 2000, dated 2006).

pIC50: −log10 of the molar value. Counter-ions that a name gives are not always drawn.

Broadly, the pIC50 is the IC50 on a negative log10 scale, so that one unit is a factor of ten.

The first assay deals with A549 human lung epithelium cell line. In words: RANTES production in response to TNF-α from A549 cells. It is filed as cell-based. The following applies: A549 cells, 100 ng/ml TNF-α, read-out: Cellular activity grade (A549) (Cellular IC50). As to the method:
[The Measurement of RANTES Production in Response to TNF-α from A549 Cells]
(1) Preparation of A549 Cells
• The A549 human lung epithelium cell line (ATCC […]) was maintained in Dulbecco's modified Eagle's medium (D-MEM, Nikken Biomedical Institute) supplemented with 10% FCS (Gibco), 100 U/ml penicillin, 100 μg/ml streptomycin, and 2 mM glutamine (culture medium). Forty thousand (4×10^4) cells (80 μl/well) were seeded in each well of 96 well flat-bottom tissue culture plate (Falcon #3072). The plate was allowed to stand for 2 hrs, thus the cells were adhered to the bottom of each well. To the each well was added 10 μl vehicle (1% DMSO), serial dilutions of test compounds in 1% DMSO, or 5 nM Dexamethasone in 1% DMSO as a reference. The mixture (90 μl/well) was incubated for 1 hr at 37° C. After 1 hr, 1 μg/ml TNF-α (10 μl) in culture medium was added to the mixture to obtain 100 μl of reaction mixture. The reaction mixture was cultured for 24 hrs to stimulate the cells with 100 ng/ml TNF-α. Cells with vehicle without TNF-α stimulation were also prepared. (2) Measurement of RANTES Production • Then the concentration of RANTES released from the cells in the supernatants of each well was determined using a quantitative sandwich enzyme immunoassay technique. First, 2 μg/ml mouse anti-huRANTES mAb (R&D Systems, #mAb678) in PBS buffer (pH 7.4, 100 μl) was put in each well of 96-well NUNC fluoro plate (Nalge Nunc, New York USA) (Final 200 ng/well) and the plate was allowed to stand for overnight at 4° C. to be coated by the antibody. Each well of the plate was then washed with 350 μl wash buffer (0.05% Tween-20, 0.85% NaCl, and 25 mM Tris/HCl pH7.4) for three times. Blocking buffer containing 1% BSA (Sigma 99% pure, 100 g), 5% sucrose (Nacalai tesque, 99% pure, 500 g), and 0.02% azide (Nacalai tesque, 100%, 500 g) were added (200 μl) to each well and then the plate was allowed to stand for 4 hours to stabilize the coated antibody. Next, 50 μl supernatants of cell culture prepared in (1) above were put in each well of the 96-well NUNC fluoro plate with coated antibody. Recombinant Human RANTES (Pepro Tech, Inc. #300-06) was used as the standard for the determination of RANTES production (linear range between 1 and 10 ng/ml). Eu-labelled mouse anti-huRANES mAb (60 ng/ml: R&D Systems, #mAb278) in PBS supplemented by 1% BSA and 0.05% Tween 20 was added (50 μl) to each well. The reaction mixtures were incubated at room temperature for 4 hrs. After washing with wash buffer (0.05% Tween-20, 0.85% NaCl, and 25 mM Tris/HCl pH7.4, 350 μl/well) for 5 times with the use of a Sera Washer (Bio-Tech, #MW-96R), the enhancement solution (DELFIA, #1244-405, 100 μl/well) was added to each well. The plate was incubated for 10 minutes at room temperature with moderate shaking. Fluorescent intensity was measured using a DELFIA fluorimeter (Wallac). Excitation was performed at 340 nm and emission was measured at 615 nm. [The Measurement of TNF-α Production in Response to LPS from Peripheral Blood Mononuclear Cells (PBMC)] (1) Preparation of PBMC • Human PBMC were prepared by first obtaining blood from healthy donors and isolating the cells from the blood. The isolation was done by Ficoll gradient-centrifugation method using Ficoll Pacque (Pharmacia #17-1440-02). Within three hours from donation, the isolated PBMC was used. After three times washing with PBS, PBMC were resuspended with RPMI 1640 (Nikken BioMedical Institute) supplemented with 10% FCS (Gibco), 100 U/ml penicillin, 100 μg/ml streptomycin, and 2 mM glutamine (culture medium). The cells (1×10^5 in 150 μL/well) were seeded in each well of 96 well flat-bottom tissue culture plate (Falcon #3072). To the each well was added 20 μl vehicle (1% DMSO), serial dilutions of test compounds in 1% DMSO, or 250 nM Dexamethasone in 1% DMSO as a reference. The mixture (170 μl/well) was incubated for 1 hr at 37° C. After 1 hr, 20 ng/ml LPS (30 μl) in culture medium was added to the mixture to obtain 200 μl of reaction mixture. […]
`Nc1nc(-c2ccccc2O)cc2c1CNC2Cc1ccccc1` (stereo in doubt) [Example 20-3, 2-[(1S)-4-amino-1-benzyl-2,3-dihydro-1H-pyrrolo[3,4-c]pyridin-6-yl]phenol hydrochloride]: the pIC50 is 5.00 to 6.00.

Staying with this assay, now noted: Homo sapiens, A549, A549 cells, 100 ng/ml TNF-α, read-out: Cellular activity grade (A549) (Cellular IC50).
Regarding `CC1(c2cc(-c3ccccc3O)nc(N)c2C#N)CCCNC1` (stereo not shown) [Example 1-3, 2-amino-6-(2-hydroxyphenyl)-4-(3-methylpiperidin-3-yl)-nicotinonitrile hydrochloride], the pIC50 is 5.00 to 6.00.

Consider `CNC1CCCC(c2cc(-c3ccccc3O)nc(N)c2C#N)C1` (stereo not shown) [Example 1-5, 2-amino-6-(2-hydroxyphenyl)-4-[3-methylamino]cyclohexyl]nicotinonitrile hydrochloride], for which the pIC50 is 5.00 to 6.00.

In the case of `N#Cc1c(C2CCCNC2)cc(-c2ncccc2O)nc1N` (stereo not shown) [Example 1-6, 6-amino-3′-hydroxy-4-(3-piperidinyl)-2,2′-bipyridine-5-carbonitrile hydrochloride], the pIC50 is over 6.00.

In the case of `N#Cc1c(C2CCCNC2)cc(-c2sccc2O)nc1N` (stereo not shown) [Example 1-7, 2-amino-6-(3-hydroxy-2-thienyl)-4-(3-piperidinyl)nicotinonitrile hydrobromide], the pIC50 was over 6.00.

On to `N#Cc1c(C2CCCC(C(=O)O)C2)cc(-c2ccccc2O)nc1N` (stereo not shown) [Example 1-8, 3-[2-amino-3-cyano-6-(2-hydroxyphenyl)-4-pyridinyl]cyclohexanecarboxylic acid], for which the pIC50 is under 5.00.

`N#Cc1c(C2=CCCNC2)cc(-c2ccccc2O)nc1N` [Example 1-9, 2′-amino-6′-(2-hydroxyphenyl)-1,2,5,6-tetrahydro-3,4′-bipyridine-3′-carbonitrile hydrochloride]: the pIC50 is over 6.00.

For `N#Cc1c(C2CCCNC2)cc(-c2c(N)cccc2O)nc1N` (stereo not shown) [Example 1-10, 2-amino-6-(2-amino-6-hydroxyphenyl)-4-(3-piperidinyl)nicotinonitrile hydrochloride], the pIC50 is under 5.00.

Consider `N#Cc1c(C2CCCNC2)cc(-c2c(O)cccc2NCc2ccccc2)nc1N` (stereo not shown) [Example 1-11, 2-amino-6-[2-(benzylamino)-6-hydroxyphenyl]-4-(3-piperidinyl)nicotinonitrile hydrochloride], for which the pIC50 was under 5.00.

For the compound `CC(=O)Nc1cccc(O)c1-c1cc(C2CCCNC2)c(C#N)c(N)n1` (stereo not shown) [Example 1-12, N-{2-[6-amino-5-cyano-4-(3-piperidinyl)-2-pyridinyl]-3-hydroxyphenyl}acetamide hydrochloride], the pIC50 is under 5.00.

`N#Cc1c(C2CCCNC2)cc(-c2c(O)cccc2O)nc1N` (stereo not shown) [Example 2-1, 2-amino-6-(2,6-dihydroxyphenyl)-4-(3-piperidinyl)nicotinonitrile hydrochloride]: the pIC50 was over 6.00.

On to `N#Cc1c(C2CCCNC2)cc(-c2c(O)cccc2OCc2ccccc2)nc1N` (stereo not shown) [Example 2-2, 2-amino-6-[2-(benzyloxy)-6-hydroxyphenyl]-4-(3-piperidinyl)nicotinonitrile hydrochloride], for which the pIC50 was over 6.00.

Consider `N#Cc1c(C2CCNCC2)cc(-c2c(O)cccc2OCC2CC2)nc1N` [Example 2-3, hydrochloride], for which the pIC50 is over 6.00.

Regarding `CN1CCCC(c2cc(-c3c(O)cccc3OCC3CC3)nc(N)c2C#N)C1` (stereo not shown) [Example 3-1, 2-amino-6-[2-(cyclopropylmethoxy)-6-hydroxyphenyl]-4-(1-methyl-3-piperidinyl)nicotinonitrile], the pIC50 was over 6.00.

Turning to `N#Cc1c(C2CCCN(Cc3ccccc3)C2)cc(-c2c(O)cccc2OCC2CC2)nc1N` (stereo not shown) [Example 3-2, 2-amino-4-(1-benzyl-3-piperidinyl)-6-[2-(cyclopropylmethoxy)-6-hydroxyphenyl]nicotinonitrile], the pIC50 is under 5.00.

Take `CCCNc1nc(-c2ccccc2O)cc(C2CCCNC2)c1C#N` (stereo not shown) [Example 4-2, 6-(2-hydroxyphenyl)-4-(3-piperidinyl)-2-(propylamino)nicotinonitrile hydrochloride]: the pIC50 is under 5.00.

With `CNc1nc(-c2ccccc2O)cc(C2CCCNC2)c1C#N` (stereo not shown) [Example 4-3, 6-(2-hydroxyphenyl)-2-(methylamino)-4-(3-piperidinyl)nicotinonitrile hydrochloride], the negative logarithm of the IC50 (pIC50) was under 5.00.

Turning to `N#Cc1c(C2CCCNC2)cc(-c2ccccc2O)nc1Nc1ccccc1` (stereo not shown) [Example 4-4, hydrochloride], the pIC50 was 5.00 to 6.00.

With `Nc1n[nH]c2nc(-c3ccccc3O)cc(C3CCCNC3)c12` (stereo not shown) [Example 5-1, 2-[3-amino-4-(3-piperidinyl)-1H-pyrazolo[3,4-b]pyridin-6-yl]phenol hydrochloride], the pIC50 is 5.00 to 6.00.

For the compound `CC(=O)Nc1n[nH]c2nc(-c3ccccc3O)cc(C3CCCNC3)c12` (stereo not shown) [Example 5-2, N-[6-(2-hydroxyphenyl)-4-(3-piperidinyl)-1H-pyrazolo[3,4-b]pyridin-3-yl]acetamide hydrochloride], the pIC50 was under 5.00.

For `CC(=O)Nc1nc(-c2ccccc2O)cc(C2CCCNC2)c1C#N` (stereo not shown) [Example 6-1, N-[3-cyano-6-(2-hydroxyphenyl)-4-(3-piperidinyl)-2-pyridinyl]acetamide hydrochloride], the pIC50 was 5.00 to 6.00.

Take `CC(=O)Nc1nc(-c2c(O)cccc2OCC2CC2)cc(C2CCNCC2)c1C#N` [Example 6-2, N-[3-cyano-6-[2-(cyclopropylmethoxy)-6-hydroxyphenyl]-4-(4-piperidinyl)-2-pyridinyl]acetamide hydrochloride]: the pIC50 was over 6.00.

On to `NC(=O)c1c(C2CCCNC2)cc(-c2ccccc2O)nc1N` (stereo not shown) [Example 7-1, 2-amino-6-(2-hydroxyphenyl)-4-(3-piperidinyl)nicotinamide hydrochloride], for which the pIC50 is 5.00 to 6.00.

As to `O=c1[nH]c(=O)c2c(C3CCCNC3)cc(-c3ccccc3O)nc2[nH]1` (stereo not shown) [Example 7-2, 7-(2-hydroxyphenyl)-5-(3-piperidinyl)pyrido[2,3-d]pyrimidine-2,4(1H,3H)-dione hydrochloride], the pIC50 was under 5.00.

As for `O=c1[nH]c2nc(-c3ccccc3O)cc(C3CCCNC3)c2c(=O)n1-c1ccccc1` (stereo not shown) [Example 7-3, 7-(2-hydroxyphenyl)-3-phenyl-5-(3-piperidinyl)pyrido[2,3-d]pyrimidine-2,4(1H,3H)-dione hydrochloride], the pIC50 was under 5.00.

In the case of `Nc1nc(-c2ccccc2O)cc2c1C(=O)N1CCCC2C1` (stereo not shown) [Example 8-1, 6-amino-4-(2-hydroxy-phenyl)-5,9-diaza-tricyclo[7.3.1.0^2,7]trideca-2(7),3,5-trien-8-one], the pIC50 is 5.00 to 6.00.

Consider `CNC(=O)c1c(C2CCCNC2)cc(-c2ccccc2O)nc1N` (stereo not shown) [Example 8-2, 2-amino-6-(2-hydroxyphenyl)-N-methyl-4-(3-piperidinyl)nicotinamide hydrochloride], for which the pIC50 is 5.00 to 6.00.

For the compound `CNC(=O)c1c(C2CCCNC2)cc(-c2c(O)cccc2OCC2CC2)nc1N` (stereo not shown) [Example 8-3, 2-amino-6-[2-(cyclopropylmethoxy)-6-hydroxyphenyl]-N-methyl-4-(3-piperidinyl)nicotinamide hydrochloride], the pIC50 was over 6.00.
